Laboratory results published in patent publication US20210393664A1, “THERAPEUTIC METHODS AND COMPOSITIONS FOR TREATING ACUTE MYELOID LEUKEMIA USING DEVIMISTAT” (Rafael Pharmaceuticals, Inc., priority 2018, published 2021).

Legend:
[1] = Adverse events by relatedness to devimistat; format: in vivo, human; details: patients
Description: An AE can therefore be any unfavorable sign (including an abnormal laboratory finding), symptom, or disease temporarily associated with the study treatment, whether or not related to the investigational product.
Probably Related—A clinical event follows a reasonable temporal sequence from the time of Investigational Product (CPI-613®) administration. The toxicity cannot be reasonably explained by other factors such as the subjects clinical state or concurrent medical condition, or concurrent medication(s).
Possibly Related—A clinical event follows a reasonable temporal sequence from the time of active Investigational Product (CPI-613®) administration, but could also have been produced by other factors such as the subjects clinical state, or concurrent medical condition, or concurrent medication(s).

[2] = Leaching of DEHP from IV infusion sets and IV bags; format: physicochemical; details: DEHP-containing IV infusion sets and IV bags
[3] = set-up: species or system animal; details: in vivo, iv
Protocol: (§1) Diluted CPI-613® (devimistat) drug product must be administered over 2 hours, concurrently with D5W at the rate of 125 mL/hour, by IV infusion via a central line catheter, using an infusion pump, that is free flowing and free of air in the dead space of the IV catheter. This is done to minimize vascular irritation, inflammation and acute toxicity of CPI-613® (devimistat) (Study NCL-049). […] To avoid local reactions at and around the site of administration, CPI-613® (devimistat) must be administered via a central IV catheter.

[4] = Animal study NCL-049: extra air in the dead space of IV catheters during administration; format: in vivo; details: accidental co-administration of extra air in the dead space of IV catheters; animal studies (Study NCL-049)
Protocol: as §1

O=C(O)CCCCC(CCSCc1ccccc1)SCc1ccccc1 (stereo not shown) [devimistat, 6,8-bis-benzylthio-octanoic acid]
adverse events probably related [1]: Nausea, Vomiting, Diarrhea, Increased creatinine, Neutropenia, Hyperkalemia, Hypoalbuminemia, Hypophosphatemia, Hyponatremia, Fatigue, Platelet count decreased, Renal failure (reversible), Glomerular filtration rate (decreased), Hemoglobin (anemia)
leaching of DEHP [2]: can cause leaching of DEHP from IV infusion sets and IV bags
local inflammation [3]: significant local inflammation
acute toxicity [4]: potential to induce acute toxicity
